Measurements: patent US20180162862A1 (President and Fellows of Harvard College, priority 2015, published 2018)
Converted amounts (≈) assume the structure as drawn. Like-named read-outs stand apart in the source and are kept apart here.

How the values were obtained:
[1] = test system: S. aureus ATCC 29213; assay: MIC test according to CLSI M7-A9, S. aureus ATCC 29213; assay type: cell-based; details: Staphylococcus aureus
Procedure, shortened: (§1)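 Per CLSI M7-A9, DMSO stocks diluted in cation-adjusted Mueller Hinton broth, plates incubated 24 h at 37 °C in air. MIC is the lowest concentration giving complete inhibition of visible growth, read visually and at 600 nm.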

[2] = test system: S. aureus ATCC 43300; assay: MIC test according to CLSI M7-A9, S. aureus ATCC 43300; assay type: cell-based; details: Staphylococcus aureus
Procedure, shortened: as §1

[3] = test system: H. influenzae ATCC 49247; assay: MIC test according to CLSI M7-A9, H. influenzae ATCC 49247; assay type: cell-based; details: Haemophilus influenzae, ATCC49247; CLSI M7-A9, Haemophilus Test Medium, 24 h
Protocol: MIC Test (H. influenzae ATCC 49247)
Susceptibility testing of H. influenzae ATCC 49247 was performed according to Clinical Laboratory Standard Institute (CLSI) guidelines M7-A9. Test articles were stored at room temperature prior to use, then dissolved in filtered sterile DMSO. Stock DMSO solutions were diluted further in Haemophilus Test Medium (HTM) to provide appropriate test concentrations. Cultures of H. influenzae ATCC 49247 were added in accordance with CLSI guidelines and plates incubated at 37° C. in air for 24 h. Endpoints were determined visually (and by spectrophotometer at 600 nm) and the minimum inhibitory concentration (MIC) defined as the lowest concentration of test articles resulting in complete inhibition of visible bacterial growth.

[4] = target: T1, S. aureus SgtB (SgtB ΔTM) (Staphylococcus aureus, UniProt Q99T05); assay: Dose-dependent displacement of probe CMG121 from S. aureus SgtB by fluorescence polarization; assay type: binding; details: 75 nM CMG121, 1.0-1.5 μM SgtB, pH 8.0, 30 min at 4° C., read-out: SgtB (FP, probe CMG121 displacement) IC50
T1 construct: SgtB ΔTM of S. aureus; made in house
Protocol: FIGS. 10A to 10E show dose-dependent displacement of probe CMG121 from S. aureus SgtB with exemplified compounds determined by fluorescence polarization.
All of the references are incorporated by reference herein. • SgtB ΔTM of S. aureus (referred to as “SgtB”), • PBP2a (A68-N728) of E. faecalis (referred to as “PBP2a”)
Probe compound CMG121 was prepared as previously described (Gampe et al., J. Am. Chem. Soc. 2013, 135 (10), 3776-3779; U.S. Provisional Patent Application Nos. 61/621,229 filed on Apr. 6, 2012).
(§2) I. Dose-Dependent Displacement of CMG121 from S. aureus SgtB by Fluorescence Polarization
(§3) A black 384 well plate (Corning NBS Low Volume No. 3820) was filled (10 μL per well) with an equilibrated solution containing 10 mM TRIS (pH=8.0), 100 mM NaCl, 75 nM CMG121, and 1.0-1.5 μM S. aureus SgtB (depending on protein batch). Due to presence of 8 mM CHAPS detergent in the buffer of the S. aureus SgtB stock, the final assay solution contains 100-160 μM CHAPS. Using an HP D300 Digital Dispenser, for each compound a 1/1 dilution series (12 wells) of the primary hit compound in DMSO (normalized to 1 μL with DMSO) was prepared and added to the aforementioned assay solution. The plate was incubated at 4° C. for 30 min and read with a Perkin Elmer EnVision microplate reader (FP-read out, excitation: 480 nm; emission: 535 nm).
(§4) FIGS. 10A-E show values of reduction of fluorescence polarization for exemplified compounds. […] In the primary assay, FP was read after 30 min at 4° C., compound concentration was ca. 100 μM, and 90% reduction in FP was threshold for scoring hits (Gampe et al., J. Am. Chem. Soc. 2013, 135 (10), 3776-3779; U.S. Provisional Patent Application, U.S. Ser. No. 61/621,229, filed on Apr. 6, 2012; International Application No. PCT/US2013/030800 filed on Mar. 13, 2013).
(§5) The values were determined in two independent experiments. IC50=10 μM; Hill slope: −0.92.

[5] = target: S. aureus SgtB (Staphylococcus aureus, UniProt Q99T05); assay: as above; assay type: binding; parameters: made in house
Protocol: as §2, §3, §4, §5

[6] = test system: S. aureus Newman; assay: MIC test according to CLSI M7-A9, S. aureus Newman; assay type: cell-based; details: Staphylococcus aureus, CLSI M7-A9, CAMHB, 24 h (Table 3), read-out: S. aureus ATCC Newman MIC
Procedure, shortened: as §1

[7] = test system: MSSA Newman; assay: MIC test in TSB medium with MTT staining, MSSA Newman; assay type: cell-based, Staphylococcus aureus; details: Staphylococcus aureus
Protocol: MIC Test (Methicillin Susceptible Staphylococcus aureus (MSSA Newman))
Overnight cultures of MSSA Newman were grown up in TSB medium at 37° C. The cultures obtained were normalized with TSB to OD600=0.6 and diluted 100-fold. 1.5 μL of a dilution series of Example Compounds in DMSO (100×, in duplicate), and the diluted bacterial culture (150 μL) was added to wells of a sterile, clear 96 well plate and incubated at 37° C.

[8] = ATCC29213, CLSI M7-A9, CAMHB, 24 h (Table 2), read-out: S. aureus ATCC 29213 MIC at 24 h
[9] = ATCC43300, CLSI M7-A9, CAMHB, 24 h (Table 2), read-out: S. aureus ATCC 43300 MIC at 24 h
[10] = ATCC29213, CLSI M7-A9, CAMHB, 24 h (Table 3), read-out: S. aureus ATCC 29213 MIC
[11] = TSB, 37° C., MTT staining after 7 h, read-out: MSSA Newman MIC at 7 h
[12] = TSB, 37° C., MTT staining after 24 h, read-out: MSSA Newman MIC at 24 h

For `CC(C)(C)c1ccc(-c2nc(NCCCOC3CCCCC3)n3[nH]c(=O)cc3n2)cc1` [Example 31, 2-(4-tert-butylphenyl)-4-{[3-(cyclohexyloxy)propyl]amino}-6H,7H-pyrazolo[1,5-a][1,3,5]triazin-7-one], the MIC [1, 8] was 8 µg/mL (≈ 18.9 µM), the MIC [2, 9] was 16 µg/mL (≈ 37.8 µM) and the MIC [3] was 32 µg/mL (≈ 75.5 µM).

Compound `Cc1ccc(OCCCSc2nc(-c3ccc(C(C)(C)C)cc3)nc3cc(=O)[nH]n23)cc1C` [Compound 1882F04] has an IC50 ([4]; Figure 10F) of 26 µM.

`Cc1ccc(CSc2nc(-c3ccc(C(C)(C)C)cc3)nc3cc(=O)[nH]n23)cc1` [Entry 9] showed an IC50 [5] of 112 µM.

Work on `CC(C)(C)c1ccc(-c2nc(NCCNC3Cc4ccccc4C3)n3[nH]c(=O)cc3n2)cc1` [Example 90, 2-(4-tert-Butylphenyl)-4-({2-[(2,3-dihydro-1H-inden-2-yl)amino]ethyl}amino)-6H,7H-pyrazolo[1,5-a][1,3,5]triazin-7-one] yielded an MIC [1, 10] of 16 µg/mL (≈ 36.2 µM), an MIC ([2]; ATCC43300, CLSI M7-A9, CAMHB, 24 h (Table 3), read-out: S. aureus ATCC 43300 MIC) of 16 µg/mL (≈ 36.2 µM) and an MIC [6] of 16 µg/mL (≈ 36.2 µM). For the same compound, the MIC [3] was 16 µg/mL (≈ 36.2 µM).

`CN1CCC(Nc2nc(-c3ccc(C(C)(C)C)cc3)nc3cc(=O)[nH]n23)CC1` [Example 19, 2-(4-tert-butylphenyl)-4-[(1-methylpiperidin-4-yl)amino]-6H,7H-pyrazolo[1,5-a][1,3,5]triazin-7-one] was tested, and the MIC [1, 8] was 64 µg/mL (≈ 168 µM), the MIC [2, 9] was 64 µg/mL (≈ 168 µM) and the MIC [3] was 64 µg/mL (≈ 168 µM).

`CC(C)(C)c1ccc(-c2nc(N)n3[nH]c(=O)cc3n2)cc1` [Entry 17] gave an IC50 [5] of over 200 µM.

`Cc1ccc(-c2nc(SCCOc3ccccc3C)n3[nH]c(=O)cc3n2)cc1` [Compound 1882P19] gave an IC50 ([4]; Figure 10F) of over 200 µM.

`Cc1cccc(OCCCSc2nc(-c3ccc(C(C)(C)C)cc3)nc3cc(=O)[nH]n23)c1C` [Compound 1882L04] was tested, and the IC50 ([4]; Figure 5) was 7 µM.

`CNc1nc(-c2ccc(C(C)(C)C)cc2)nc2cc(=O)[nH]n12` [Entry 16] gave an IC50 [5] of over 200 µM.

`Cc1cccc(OCCCNc2nc(-c3ccc(C(C)(C)C)cc3)nc3cc(=O)[nH]n23)c1C` [Example 30, 2-(4-tert-butylphenyl)-4-{[3-(2,3-dimethylphenoxy)propyl]amino}-6H,7H-pyrazolo[1,5-a][1,3,5]triazin-7-one] was tested, and the MIC [1, 8] was over 32 µg/mL, the MIC [2, 9] was over 32 µg/mL and the MIC [7, 11] was 1.6 µg/mL (≈ 3.59 µM). It also gave an MIC [7, 12] of 6.2 µg/mL (≈ 13.9 µM).

For `Cc1ccc(C(C)C)c(OCCSc2nc(-c3ccccc3F)nc3cc(=O)[nH]n23)c1` [Compound 1882J21], the IC50 ([4]; Figure 10F) was over 200 µM.

`Cc1ccc(Cc2c(=O)[nH]n3c(=S)[nH]c(-c4ccc(C(C)(C)C)cc4)nc23)cn1` [Example 112, 2-(4-tert-butylphenyl)-8-[(6-methylpyridin-3-yl)methyl]-4-sulfanylidene-3H,4H,6H,7H-pyrazolo[1,5-a][1,3,5]triazin-7-one] was tested, and the MIC [1, 10] was 8 µg/mL (≈ 19.7 µM), the MIC [6] was 4 µg/mL (≈ 9.86 µM) and the MIC [3] was 16 µg/mL (≈ 39.5 µM).

For `Cc1cc(OCCCSc2nc(-c3ccc(C(C)(C)C)cc3)nc3cc(=O)[nH]n23)ccc1Cl` [Example 2, 2-(4-tert-butylphenyl)-4-{[3-(4-chloro-3-methylphenoxy)propyl]sulfanyl}-6H,7H-pyrazolo[1,5-a][1,3,5]triazin-7-one], the MIC ([1]; ATCC29213, 24 h, read-out: S. aureus ATCC 29213 MIC at 24 h) was over 32 µg/mL, the MIC ([2]; ATCC43300, 24 h, read-out: S. aureus ATCC 43300 MIC at 24 h) was over 32 µg/mL and the MIC ([7]; 7 h, read-out: MSSA Newman MIC at 7 h) was over 100 µg/mL.

Work on `COc1ccc(CNc2nc(-c3ccc(C(C)(C)C)cc3)nc3cc(=O)[nH]n23)cc1` [Entry 14] yielded an IC50 [5] of over 200 µM.

`CC(C)(C)c1ccc(-c2nc(O)n3[nH]c(=O)cc3n2)cc1` [Entry 18] showed an IC50 [5] of 34 µM.

Work on `O=c1[nH]n2c(=S)[nH]c(C34CC5CC(CC(C5)C3)C4)nc2c1Cc1ccccc1` [Example 121, 2-(adamantan-1-yl)-8-benzyl-4-sulfanylidene-3H,4H,6H,7H-pyrazolo[1,5-a][1,3,5]triazin-7-one] yielded an MIC [1, 10] of 4 µg/mL (≈ 10.2 µM), an MIC [6] of 4 µg/mL (≈ 10.2 µM) and an MIC [3] of 8 µg/mL (≈ 20.4 µM).

In the case of `Cc1cc(OCCCNc2nc(-c3cc[n+]([O-])cc3)nc3cc(=O)[nH]n23)ccc1Cl` [Example 126, 4-(4-{[3-(4-chloro-3-methylphenoxy)propyl]amino}-7-oxo-6H,7H-pyrazolo[1,5-a][1,3,5]triazin-2-yl)pyridin-1-ium-1-olate], the MIC [3] is reported as 1 µg/mL (≈ 2.34 µM).

`CC(C)(C)c1ccc(-c2nc(NCCCOc3cnc(Cl)nc3)n3[nH]c(=O)cc3n2)cc1` [Example 52, 2-(4-tert-butylphenyl)-4-({3-[(2-chloropyrimidin-5-yl)oxy]propyl}amino)-6H,7H-pyrazolo[1,5-a][1,3,5]triazin-7-one] showed an MIC [1, 8] of over 64 µg/mL, an MIC [2, 9] of over 64 µg/mL and an MIC [7, 11] of 12.5 µg/mL (≈ 27.5 µM). For the same compound, the MIC [7, 12] was 25 µg/mL (≈ 55.1 µM).
